Source: US9566341B1, “Compounds including Cox inhibitor moiety and enhanced delivery of active drugs using same” (University of Kentucky Research Foundation, priority 2011, dated 2017)
“And” between values parts separate entries of the source, which are not always exact repeats. Equal values may be shown once. “Also recorded” adds a separate entry of the source. Read-outs that look alike come from different tables or passages of the source.

What was measured:
[1] = Enzymatic stability in hairless guinea pig plasma; type: in vitro ADME; details: for enzymatic stability half-life in hairless guinea pig plasma: HGP plasma, 37° C., n=3
Method: Chemical and enzymatic stability was determined for the codrugs. For chemical stability studies, the codrug was put in prewarmed 0.3M acetate buffer pH 5.0 after solubilization in <5% ACN, if required, at 32° C. in an incubator. Samples were withdrawn at regular intervals and injected into the HPLC after appropriate dilutions. Enzymatic stability studies are important for estimation of conversion of codrugs in the plasma. For plasma stability studies prewarmed HGP plasma at 37° C. was spiked with codrug solution and samples were withdrawn at regular intervals. 100 μl of plasma sample was extracted with 1 ml of 1:1 ACN:ethyl acetate, vortexed, centrifuged at 10,000 rpm for 20 minutes on a bench top Eppendorf Mini Spin®. The supernatant was decanted into a glass tube and evaporated under nitrogen. Samples were reconstituted in 100 μl ACN and injected onto the HPLC. All stability data was analyzed using pseudo first order kinetics. All stability studies were carried out at least, in triplicate.

[2] = Concentration of saturated donor solution; type: physicochemical
Method: Solubility studies are carried out by equilibrating large excesses of each drug with the solvent studied. The experiments will be done at skin surface temperature (32° C.). To hasten the attainment of equilibrium, each slurry will be continuously shaken or stirred. Samples will be taken, filtered with an appropriate filter for the solvent, measured with respect to volume, and either assayed directly by HPLC or evaporated to dryness and reconstituted for assay. Binding of the compounds to the filter will be checked to eliminate the possibility of drug adsorption on the filter and/or filter casing. All toxic solvents and other chemicals will be handled with caution, and fume hoods will be used when appropriate.
In vitro experiments. The goal of the first set of in vitro experiments was to estimate flux and skin concentration of the base form of the codrug.

[3] = Chemical stability in 0.3M acetate buffer pH 5.0 at 32° C.; type: physicochemical
From the text: The chemical stability of the prodrugs to hydrolysis and solvolysis at the appropriate temperatures will be determined by measuring concentrations over time in the buffers and solvents used in the solubility and diffusion studies. Chemical degradation rate constants will be important in distinguishing enzymatic degradation from non-enzymatic degradation. Codrug enzymatic metabolism rate constants can also be determined in skin homogenates, to ascertain if the values are useful in the QSPR multiple regression analysis. The kinetics of codrug enzymatic degradation in skin homogenates will be done using abdominal plastic surgery samples. Enzymatic reaction rates will be determined at several different codrug concentrations. The skin is homogenized (Polytron tissue homogenizer and ground glass homogenizer fitted with a glass pestle) in HEPES-buffered Hanks' balanced salt solution and the supernatant is obtained. The enzymatic hydrolysis rates are determined in the homogenate at 37° C. The codrug and its metabolites will be obtained by solid-phase extraction, or another appropriate extraction method. Naltrexone and any other metabolite formed will be assayed by HPLC and expressed as moles of metabolite per minute per milligram of protein. Protein concentrations in the supernatant will be measured by the Bradford method. Controls containing only codrug and HEPES-buffered Hanks' balanced salt solution at 37° C. will also be monitored to determine non-enzymatic hydrolysis.
Chemical and enzymatic stability was determined for the codrugs. For chemical stability studies, the codrug was put in prewarmed 0.3M acetate buffer pH 5.0 after solubilization in <5% ACN, if required, at 32° C. in an incubator. Samples were withdrawn at regular intervals and injected into the HPLC after appropriate dilutions. Enzymatic stability studies are important for estimation of conversion of codrugs in the plasma. […] All stability data was analyzed using pseudo first order kinetics. […]

[4] = In vitro diffusion study across microneedle-treated full thickness Yucatan miniature pig skin; type: in vitro ADME; details: for bioconversion of the codrug in the skin: parent drugs in receiver/skin; for flux enhancement of salt form over free base form: NTX flux, p<0.005; for flux of naltrexone from the hydrochloride salt form: donor in 0.3M acetate buffer pH 5.0, n=4
Method: For all in vitro experiments female Yucatan minipig skin (6 months old) were used. Skin sections were obtained by removing the subcutaneous fatty tissue by scalpel dissection, and were stored at −20° C. A PermeGear flow-through (In-Line, Riegelsville, Pa., USA) diffusion cell system was used for the skin permeation studies.
The skin was pierced 20 times with an array containing 5 MN (i.e., to make a total of 100 individual and non-over lapping piercings) before mounting the skin in the diffusion cell for the treatment group. The insertion of MN into skin was carried out manually by applying gentle finger pressure followed by instantaneous removal. MN's were distributed evenly within the 0.95 cm^2 area of skin and could easily be visualized after each 5 MN insertion, as to prevent reapplication in the same area. Single MN array of 5 were used simply out of ease for the experimental procedure. If any damage to an MN section was observed the section was replaced. […] Untreated skin samples were simply placed in the diffusion cells. Diffusion cells were kept at 32° C. using a circulating water bath. Data were collected using skin from a single pig 3-4 cells for the MN treated formulations.
The physiological receiver solution was water adjusted to pH 7.4 containing 20% ethanol, and the flow rate was adjusted to 1.5 ml/h. Each cell was charged with 0.25 ml of the donor in the donor compartment of the chamber. The diffusion cells were covered with a stopper to prevent evaporation. Samples were collected from the receiver compartment in six-hour increments over 48 h or for the length of the treatment. All samples were stored at 4° C. until analyzed by HPLC.
The in vitro permeation experiments were carried out to determine the transdermal flux of the parent drugs and the codrug, permeation coefficients as well as the concentration of the drug molecules in the skin at the end of the study. For all in vitro experiments Yucatan miniature pig (YP) skin was used. Full thickness skin was obtained by removing the subcutaneous fatty tissue by scalpel dissection, and stored at −20° C. A PermeGear flow-through (In-Line, Riegelsville, Pa., USA) diffusion cell system was used for the skin permeation studies. […] The skin was pierced 20 times with a 5 MN array (making 100 individual and non-over lapping piercings) before mounting the skin in the diffusion cell. MN pores were distributed evenly within the 0.95 cm^2 area of skin. Untreated skin samples were mounted directly onto the diffusion cells. The setup was maintained at 32° C. using a circulating water bath. Data collected using a minimum of 3-4 cells per treatment group. The receiver solution was water alkalified to pH 7.4 containing 20% ethanol at 37° C. Gentamycin sulfate (50 mg/L) was added to the receiver for 7 day studies as an antibacterial agent. The receiver flow rate was adjusted to 1.5 ml/h to maintain skin conditions. Each cell was charged with 0.25 ml of the donor and the diffusion cells were covered with a stopper to prevent evaporation of formulation. Samples were collected at regular increments over 48 hours or for the length of the treatment. Drug was concentrated 10 fold by evaporating 1 ml of the collected sample under nitrogen and reconstituting in 100 μl of ACN for quantification. All samples were stored at 4° C. until analyzed by HPLC. The skin was removed at the end of the study and the treatment area was diced into small pieces using a scalpel after removing all excess drugs from top of the skin. Drug was extracted out by immersing the skin pieces in ACN overnight in a shaker water bath at 32° C. Samples were injected into the HPLC after appropriate dilution for quantitative analysis. The donor was also removed and quantified at the end of the study by direct injection onto HPLC after suitable dilution using ACN. All data was analyzed using Fick's first law of diffusion. […]

[5] = system: hairless guinea pig micropores; test: In vivo micropore visualization by gentian violet/India ink staining after MN treatment; details: codrug gel under occlusion, patch changed at 3.5 days
From the text: The patches were removed at predetermined time points and the site was cleaned with sterile gauze. Gentian violet/India ink was applied as the dyeing agent at the MN treated sites and allowed to dry before excess dye was removed with ethanol and gauze. Both the dyes stain the viable epidermis but not the intact SC. […] The donor was removed from the top of the skin at the end of the study and analyzed by direct injection onto HPLC after suitable dilution using ACN.
All animal experiments were approved by the University of Kentucky IACUC. A proof of concept in vivo experiment was carried out. 4% w/w gels were prepared with the hydrochloride salt form of the codrug. Gels were formulated by dissolving 4% codrug salt in PG: buffer at pH 5.0=10:90 and 3.0% hydroxyethylcellulose (HEC) polymer (required to have a gel formulation). Polymer was dissolved over a 30 minute period to obtain a homogenous gel. The solution was stirred until a viscous gel resulted and then left at room temperature for 1½ to 2 hours to remove bubbles and ensure complete polymerization. The gel was saturated with excess solid and therefore was cloudy. MN treated animals were first cleaned topically with isopropyl alcohol, and 50 MN array was applied twice mutually perpendicular to each other to give a total of 100 pores at each site. 0.3 mL gel doses were applied to the dorsal region of the HGP. After application of the gel the skin was occluded with the occlusive patch and biocclusive tape was applied to prevent evaporation of the formulation. The patch was changed with new formulation at 3.5 days such that more than 50% intact codrug was always present in formulation. […] The patches were removed to obtain data at successive 24 h time intervals.
The patches were removed at predetermined time points and the site was cleaned with sterile gauze. Gentian violet/India ink was applied as the dyeing agent at the MN treated sites and allowed to dry before excess dye was removed with ethanol and gauze. Both the dyes stain the viable epidermis but not the intact SC.

[6] = cited from earlier work
[7] = in vivo, po, cited from earlier work
[8] = Pharmacokinetic study with codrug HCl salt gel patches after MN treatment; type: in vivo, hairless guinea pig
Method: Microneedle treatment at each patch site contained 100 micropores created by a 1 cm^2 50 needle stainless steel array rotated 90° and inserted twice. […] Plasma samples were obtained from a jugular catheter over seven days and analyzed for drug concentration by LC/MS (Methods).
(§1) Hairless IAF guinea pigs (Charles River) weighing 350-650 g were used for these studies. All animal studies were in accordance with the institutional guidelines and approved by the University of Kentucky IACUC. Surgical procedure was performed to canulate the jugular vein. Blood samples (0.3 mL) were drawn from the jugular vein at regular time intervals for the time studied. MN treated animals were first cleaned topically with isopropyl alcohol, and two 50 MN arrays were then manually applied to each dose site. For MN treated GPs, four 0.3 mL gel doses were applied to the dorsal region of the hairless guinea pigs at 4 sites to obtain steady state plasma levels. […] The blood samples were immediately centrifuged at 10,000×g for 3 min; plasma was separated and stored at −70° C. until analysis.
as §1, with “70 g C” for “−70° C.”

[9] = listed as Compound 2U hydrochloride salt

## O=C(Cc1ccccc1Nc1c(Cl)cccc1Cl)Oc1ccc2c3c1O[C@H]1C(=O)CC[C@@]4(O)[C@@H](C2)N(CC2CC2)CC[C@]314 [Compound 2A]
[1]
  Enzymatic stability: 6.4 ± 0.84 min
  enzymatic stability half-life in hairless guinea pig plasma: around 6 minutes
[1]; listed as Compound 2U
  enzymatic stability half-life in hairless guinea pig plasma: 6.4 ± 0.84 min
[1]; listed as codrug
  enzymatic stability half-life in hairless guinea pig plasma: 6.4 ± 0.84 min
[2]; base form, PG:ethanol:water=43:43:14
  concentration of saturated donor solution: 4500 µg/mL
[3]
  Chemical stability: 3.9 ± 0.56 days
[4]
  diclofenac skin concentration versus effective skin concentration goal of FIG. 5: did not provide that level
[4]; FIG. 6
  flux of NTX from the codrug relative to diclofenac flux: twice as high
[4]; MN treated skin
  bioconversion of the codrug in the skin: bioconverted completely in the skin
[4]; MN treated skin, listed as Compound 2U
  bioconversion of the codrug in the skin: degraded in the skin to regenerate back the parent drugs
[4]; MN treated skin, listed as codrug
  bioconversion of the codrug in the skin: completely hydrolyzed in the skin; also recorded: degraded in the skin to regenerate back the parent drugs
[4]; base form, saturated donor PG:ethanol:water=43:43:14, MN treated skin, 48 h, n=3
  steady state flux of naltrexone from the codrug: 0.42±0.12 nmol/(cm^2/h)
[4]; base form, saturated donor PG:ethanol:water=43:43:14, MN treated skin, 48 h, n=3, listed as Compound 2U
  steady state flux of diclofenac from the codrug: 0.19±0.06 nmol/(cm^2/h)
[5]
  time the pores stay open after MN treatment: 7 days

## O=C1CC[C@@]2(O)[C@H]3Cc4ccc(O)c5c4[C@@]2(CCN3CC2CC2)[C@H]1O5 [NTX, Naltrexone]
[6]
  log P: 1.8
[7]
  oral bioavailability: 5-40%
[7]; listed as Naltrexone
  oral bioavailability: five to forty

## Cl.O=C(Cc1ccccc1Nc1c(Cl)cccc1Cl)Oc1ccc2c3c1O[C@H]1C(=O)CC[C@@]4(O)[C@@H](C2)N(CC2CC2)CC[C@]314 [codrug salt]
[8]; 4 patches, 400 MN treatments
  Css estimated from Jss*A=Css*Cl: around 1 ng/ml
[8]; LC/MS, over seven days
  intact codrug in plasma samples: not detected
[8]; days 1, 4, 5, 6, and 7
  micropore staining with India ink: Significant micropore staining
[8]; one guinea pig of four
  time at which pores closed: 6 days
[8]; salt form, 10% PG formulation
  flux of NTX from the codrug in hairless guinea pig model: not high enough to quantify
[8]; three out of the four guinea pigs, four patches, single MN pretreatment
  duration of significant NTX plasma levels: 7 days
[2]; hydrochloride salt, 0.3M acetate buffer at pH 5.0
  concentration of donor solution: 39300 µg/mL
[4]
  flux enhancement of salt form over free base form: 13 fold
[4]; [9]
  flux enhancement of salt form over free base form: about 13 fold
[4]; MN treated skin
  flux of naltrexone from the hydrochloride salt form: 5.42±1.5 nmol/(cm^2/h) and 5.5 nmol/(cm^2/h)
[4]; MN treated skin, listed as Compound 2U hydrochloride salt
  flux of naltrexone from the hydrochloride salt form: 5.42±1.5 nmol/(cm^2/h)
[4]; salt form, 25% and 50% PG, saturated donor
  flux at higher concentrations of PG: flux decreased significantly
[4]; salt form, saturated donor, one way ANOVA
  flux of 10% PG containing formulation versus aqueous formulation: no significant difference in flux
[5]; [9]
  time the pores stay open after MN treatment: ≤ 7 days
[5]; listed as HCl salt form of the compound
  time the pores stay open after MN treatment: ≤ 7 days
